These results are taken from US20230398135A1, “COMPOSITIONS INCLUDING CANNABINOID AND USE THEREOF IN THE MANUFACTURE OF A MEDICAMENT FOR THE TREATMENT OF INFLAMMATION IN A SUBJECT” (priority 2022, published 2023).

One assay relates to TNF-α. In words: suppression of TNF-α in inflammatory model induced by lipopolysaccharides and nigericin. It is filed as cell-based. To be noted: 20 μM; LPS and nigericin model. On the procedure: (§1) FIGS. 7 and 8 are bar diagrams illustrating exemplary abilities of CBG, BAK, and a composition (i.e., Mix) of CBD, CBG, and BAK at a molar concentration of 1:1:1 to suppress activities of pro-inflammatory cytokines according to some embodiments of the present disclosure. In FIGS. 7 and 8, Model represents an inflammatory model that was induced by lipopolysaccharides and nigericin. The abilities/functions of CBG, BAK, and Mix to suppress pro-inflammatory cytokines in FIGS. 7 and 8 were measured at a total CBD/CBG/BAK molar concentration of 20 μM. An ability/function to suppress activity of a pro-inflammatory cytokine was reflected by a remaining concentration of the pro-inflammatory cytokine after the reaction. The greater the remaining concentration of the pro-inflammatory cytokine, the worse the ability to suppress activity of the pro-inflammatory cytokine.

Assay [1] is described as follows: antioxidant DPPH assay (free radical scavenging). To be noted: used individually. On the procedure:
In some embodiments, the composition may have an antioxidant activity/effect. FIG. 10 is a bar diagram illustrating antioxidant effects of CBD, CBG, and BAK used individually according to some embodiments of the present disclosure. In some embodiments, data in the bar diagram in FIG. 10 was determined (e.g., measured) according to an antioxidant DPPH (i.e., α, α-diphenyl-β-picrylhydrazyl) assay that was well known for the skills in the art. An antioxidant effect was reflected by free radical scavenging after the reaction. The greater the free radical scavenging, the better the antioxidant effect.
In general terms: The DPPH test is a chemical assay of radical scavenging.

The test system of the next assay is IL-1β. In words: suppression of IL-1β in inflammatory model, cell level. It is filed as cell-based. To be noted: 20 μM; LPS and nigericin model. On the procedure:
as §1
FIG. 9 is a bar diagram illustrating exemplary abilities of a composition (i.e., Mix) of CBD, CBG, and BAK at a molar concentration of 1:1:1 at different molar concentrations to suppress activity of […] according to some embodiments of the present disclosure. In FIG. 9, Model represents an inflammatory model which was different from that in FIG. 8. […]

Assay [2] has as its target T1, COX-2 (Homo sapiens, UniProt P35354).
T1 construct: purchased BioVision Inc. (Mountain View, CA, USA)
T1 sequence (P35354 18-604): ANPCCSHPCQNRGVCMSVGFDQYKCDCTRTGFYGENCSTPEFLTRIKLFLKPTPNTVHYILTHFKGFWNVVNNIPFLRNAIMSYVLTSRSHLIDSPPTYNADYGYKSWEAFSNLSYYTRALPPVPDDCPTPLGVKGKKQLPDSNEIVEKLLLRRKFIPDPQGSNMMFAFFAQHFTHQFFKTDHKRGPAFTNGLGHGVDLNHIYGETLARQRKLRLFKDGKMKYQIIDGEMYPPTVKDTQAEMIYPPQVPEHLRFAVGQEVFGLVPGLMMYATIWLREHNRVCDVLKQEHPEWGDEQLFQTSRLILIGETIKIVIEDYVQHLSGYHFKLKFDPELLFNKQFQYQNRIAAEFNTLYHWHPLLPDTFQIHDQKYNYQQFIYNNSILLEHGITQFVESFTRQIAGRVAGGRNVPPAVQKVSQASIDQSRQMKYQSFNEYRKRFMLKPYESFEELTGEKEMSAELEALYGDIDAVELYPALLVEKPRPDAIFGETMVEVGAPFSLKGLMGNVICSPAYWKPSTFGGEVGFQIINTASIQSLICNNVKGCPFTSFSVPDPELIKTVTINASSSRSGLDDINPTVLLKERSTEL
In words: fluorometric COX-2 inhibition assay (BioVision kit). In kind it is biochemical. To be noted: for COX-2 inhibitory effect compared with personal care ingredients (terpenes): all at 50 μM, FIGS. 4-6; for inhibition at 10 µM / inhibition at 50 µM: read-out: COX-2 Inhibition (%); for inhibition at 12.5 µM: read-out: COX-2 inhibitions (FIG. 5). How it is done: The COX-2 inhibitory effects in FIGS. 4-6 were determined using a fluorometric COX-2 inhibition kit from BioVision Inc. (Mountain View, CA, USA) according to the methods described in COX-2 inhibition assay. The personal care ingredients Lim, Lin, Ner, Myc, α-pin, β-car, and α-bis represent limonene, linalool, nerolidol, myrcene, alpha-pinene, beta-caryophyllene, and alpha-bisabolol, respectively. In FIGS. 5 and 6, MIX represents a composition (or mixture) of CBD, CBG, and BAK at a molar concentration ratio of 1:1:1. MIX 50 μM, MIX 25 μM, and 12.5 μM represent total CBD/CBG/BAK molar concentrations of MIX being 50 μM, 25 μM, and 12.5 μM, respectively. CBD 50 μM represents that CBD is used individually and a molar concentration of CBD is 50 μM.
Materials and methods: the inhibitory effects of test samples (e.g., CBD, CBG, BAK, Mix, a positive control, and/or other compounds and compositions described in the present disclosure) against COX-2 were measured by a fluorometric COX-2 inhibition kit from Cayman Chemicals (Ann Arbor, Michigan, USA) or BioVision Inc. (Mountain View, CA, USA) following the manufacturer's instructions. Briefly, a COX-2 enzyme was reconstituted with 110 μL of sterile distilled H2O and arachidonic acid was dissolved in 55 μL ethanol. COX cofactor was diluted with COX assay buffer for 200 times, and arachidonic acid and NaOH were mixed in a molar ratio of 1:1 before it was diluted for 10 times for further use. COX assay buffer (84 μL), COX probe (1 μL), diluted COX cofactor (2 μL), COX-2 enzyme (1 μL), and test samples (2 μL) were incubated in a 96-well plate at room temperature for 10 min. Next, diluted arachidonic acid/NaOH solution (10 μL) was added to each well of the 96-well plate to initiate the reaction. The fluorescence of each well was recorded at an excitation wavelength of 535 nm and an emission wavelength of 587 nm with a kinetic mode for 10 min using a plate reader (SpectraMax® M2, Molecular Devices Corp., operated by SoftmaxPro® v.4.6 software, Sunnyvale, CA, USA). […] Two points (T1 and T2) in a linear range of a plot related to the recorded fluorescence were used to obtain corresponding fluorescence values (RFU1 and RFU2). Then, a slope for a sample was calculated by dividing a net ΔRFU (RFU2-RFU1) value by the time ΔT (T2-T1). An inhibition (%) of COX-2 of the sample was determined as the following equation: Inhibition (%)=((slope of control−slope of the sample)/slope of control)×100.

The target in assay [3] is T1, COX-2. Nature of the assay: fluorometric COX-2 inhibition assay (Cayman Chemical kit). It is filed as biochemical. To be noted: for inhibition at 50 µM: read-out: COX-2 Inhibition (%); for COX-2 inhibition corresponding to plateau (FIGS. 3A, 3B): after molar concentrations exceeded 10 μM; for COX-2 inhibitory effect (FIG. 1): used individually at 50 μM, 10 μM, 2 μM, 0.04 μM. How it is done:
FIG. 1 is a bar diagram illustrating COX-2 inhibitory effects of CBD and CBG used individually at different molar concentrations according to some embodiments of the present disclosure. Table 1 illustrates COX-2 inhibitory effects of some skincare active components used individually according to some embodiments of the present disclosure. The COX-2 inhibitory effects in FIG. 1 and Table 1 were determined using a fluorometric COX-2 inhibition kit from Cayman Chemical Company (Ann Arbor, Michigan, USA) according to the method of COX-2 inhibition assay as described elsewhere in the present disclosure.
Table 2 illustrates COX-2 inhibitory effects of exemplary compositions of CBD and CBG according to some embodiments of the present disclosure. The COX-2 inhibitory effects in Table 2 were determined using a fluorometric COX-2 inhibition kit from Cayman Chemical Company (Ann Arbor, Michigan, USA) according to the method of COX-2 inhibition assay as described elsewhere in the present disclosure. The compositions A, B, and C in Table 2 may be at 10 μM.
FIG. 2 is a bar diagram illustrating COX-2 inhibitory effects of CBD and CBG used individually and in combination at different molar concentrations according to some embodiments of the present disclosure. The COX-2 inhibitory effects in FIG. 1 and Table 1 were determined using a fluorometric COX-2 inhibition kit from Cayman Chemical Company (Ann Arbor, Michigan, USA) according to the method of COX-2 inhibition assay as described in the present disclosure. In FIG. 2. COMIX represents a composition (or mixture) of CBD, CBG, NMN, BAK, AGE Defense, and RC Bio. Concentrations of CBD, CBG, NMN, BAK, AGE Defense, and RC Bio in COMIX were 10 ug/mL, 2 ug/mL, 2 ug/mL, 2 ug/mL, 2 ug/mL, and 2 ug/mL, respectively. The COX-2 inhibitory effect of COMIX was measured for providing an assay basis for designing subsequent COX-2 inhibition assays. MIX′ represents a composition (or mixture) of CBD and CBG at a molar concentration ratio of 1:1. […] When a total CBD/CBG molar concentration of MIX′ was 0.5 μM, molar concentrations of CBD and CBG in MIX′ were 0.25 μM. Similarly, when a total CBD/CBG molar concentration of MIX′ was 1.0 μM, molar concentrations of CBD and CBG in MIX′were 0.5 μM; when a total CBD/CBG molar concentration of MIX′ was 5 μM, molar concentrations of CBD and CBG in MIX were 2.5 μM; when a total CBD/CBG molar concentration of MIX′ was 10 μM, molar concentrations of CBD and CBG in MIX′ were 5 μM; and when a total CBD/CBG molar concentration of MIX′ was 20 μM, molar concentrations of CBD and CBG in MIX′ were 10.0 μM.
Materials and methods: the inhibitory effects of test samples (e.g., CBD, CBG, BAK, Mix, a positive control, and/or other compounds and compositions described in the present disclosure) against COX-2 were measured by a fluorometric COX-2 inhibition kit from Cayman Chemicals (Ann Arbor, Michigan, USA) or BioVision Inc. (Mountain View, CA, USA) following the manufacturer's instructions. Briefly, a COX-2 enzyme was reconstituted with 110 μL of sterile distilled H2O and arachidonic acid was dissolved in 55 μL ethanol. COX cofactor was diluted with COX assay buffer for 200 times, and arachidonic acid and NaOH were mixed in a molar ratio of 1:1 before it was diluted for 10 times for further use. COX assay buffer (84 μL), COX probe (1 μL), diluted COX cofactor (2 μL), COX-2 enzyme (1 μL), and test samples (2 μL) were incubated in a 96-well plate at room temperature for 10 min. Next, diluted arachidonic acid/NaOH solution (10 μL) was added to each well of the 96-well plate to initiate the reaction.

As to `C=C[C@@](C)(/C=C/c1ccc(O)cc1)CCC=C(C)C` [BAK, bakuchiol], the “remaining concentration of TNF-α versus Model (FIG. 7)” value with TNF-α was “lower than the remaining concentration of TNF-α corresponding to Model”. Further, in assay [1], the “antioxidant effect compared with the other compounds (FIG. 10)” value is “better antioxidant effect than CBG and CBG”; the “antioxidant effect, free radical scavenging (FIG. 10)” value is recorded as “had an antioxidant effect”. The “remaining concentration of IL-1β versus Model (FIG. 8)” value in the assay on IL-1β is “had an activity to suppress activity of IL-113”. Besides, at COX-2 [2], the “COX-2 inhibitory effect compared with personal care ingredients (terpenes)” value is “better COX-2 inhibitory effects than the personal care ingredients”, the inhibition at 10 µM came out at 45%, the inhibition at 50 µM stood at 67.3% and the inhibition at 12.5 µM is about 60%. The inhibition at 50 µM on COX-2 [3] was determined as 81.9%.
Take `Cn1c(=O)c2c(ncn2C)n(C)c1=O` [Caffeine, caffeine, reference compound]: on COX-2 [3], the inhibition at 50 µM was 63.5%.
Take `C=C(C)[C@@H]1CCC(C)=C[C@H]1c1c(O)cc(CCCCC)cc1O` [CBD, cannabidiol, reference compound]: the “antioxidant effect, free radical scavenging (FIG. 10)” value in assay [1] is “had an antioxidant effect”. For the same molecule, at COX-2 [2], the “COX-2 inhibitory effect compared with personal care ingredients (terpenes)” value is reported as “better COX-2 inhibitory effects than the personal care ingredients”, the inhibition at 10 µM came to 42%, the inhibition at 50 µM turned out to be 52.5% and the inhibition at 12.5 µM is about 60%. Also, at COX-2 [3], the “COX-2 inhibition corresponding to plateau (FIGS. 3A, 3B)” value is “about 60%”; the inhibition at 50 µM is 71.9%; the “COX-2 inhibitory effect (FIG. 1)” value is “had a COX-2 inhibitory effect”.
As for `NC(=O)c1ccc[n+]([C@@H]2O[C@H](COP(=O)([O-])O)[C@@H](O)[C@H]2O)c1` [NMN, nicotinamide mononucleotide], at COX-2 [3] (compound used individually at 50 μM), the “COX-2 Inhibition (%)” value turned out to be 19.63%.
For the molecule `CCCCCc1cc(O)c(C/C=C(\C)CCC=C(C)C)c(O)c1` [CBG, cannabigerol], the “remaining concentration of TNF-α versus Model (FIG. 7)” value in the assay with TNF-α is recorded as “lower than the remaining concentration of TNF-α corresponding to Model”. Further, in assay [1], the “antioxidant effect, free radical scavenging (FIG. 10)” value is given as “had an antioxidant effect”. Moreover, the “remaining concentration of IL-1β versus Model (FIG. 8)” value in the assay with IL-1β is “had an activity to suppress activity of IL-113”. For the same molecule, on COX-2 [2], the “COX-2 inhibitory effect compared with personal care ingredients (terpenes)” value is “better COX-2 inhibitory effects than the personal care ingredients”, the inhibition at 10 µM worked out at 51.9%, the inhibition at 50 µM came out at 65.7% and the inhibition at 12.5 µM is about 60%. For the same molecule, at COX-2 [3], the “COX-2 inhibition corresponding to plateau (FIGS. 3A, 3B)” value was “about 60%”; the inhibition at 50 µM is 87.4%; the “COX-2 inhibitory effect (FIG. 1)” value is on record as “had a COX-2 inhibitory effect”.
